{"source": "patent US10532977B2", "about": "“Small molecule inhibitors of protein tyrosine phosphatases and uses thereof” (Indiana University Research and Technology Corporation, priority 2015, dated 2020)", "test_system": "mPTPB", "test": "IFN-γ induced Erk1/2 phosphorylation in mPTPB transfected Raw264.7 cells", "format": "cell-based, mouse", "protocol": "Raw264.7 mouse macrophages were cultured in Dulbecco's modified Eagle's medium (DMEM) supplemented with 10% FBS (Invitrogen), penicillin (50 units/mL), and streptomycin (50 μg/mL) under a humidified atmosphere containing 5% CO2 at 37° C. Transfected Raw264.7 cells (Vector, WT-mPTPB) were seeded in a 12-well plate at a density of 4×10^4 cells/well. The following day cells were treated with mPTPB inhibitor 11a for 1 hour, then stimulated with IFN-γ (200 U/ml) for 1 hour. Subsequently, the cells were washed with ice-cold phosphate buffered saline, and lysed with lysis buffer on ice for 30 minutes. Cell lysate was then cleared by centrifuging at 13,000 rpm for 15 minutes. The phosphorylation of ERK1/2 was detected by Western blotting.", "data": [{"smiles": "O=C(C(c1ccccc1)S(=O)(=O)O)N1CCCC2CCCCC21", "note": "(centres unmarked) [Compound L319N53]", "values": [{"measurement": "Erk1/2 phosphorylation in mPTPB transfected Raw264.7 cells", "setting": "8 nM, 16 nM, and 32 nM", "result": "increased Erk1/2 phosphorylation"}, {"measurement": "Erk1/2 phosphorylation in vector cells", "setting": "Raw264.7 vector cells", "result": "no effect"}]}]}
